Assays:
Assay in all cases: Bliss excess, mean over the matrix (fraction); higher = more synergy
[1] = tested on: JSC-1 (B-Cell Non-Hodgkin's Lymphoma)
Procedure, shortened: (§1)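 Cell lines grown in DMEM/F12 or RPMI with 10% FBS were plated in 1536-well plates and held 24 hours at 37°C, 5% CO2 before 72 hours of exposure to two-drug dose matrices, with DMSO typically at 0.2%. CellTiter-Glo 2.0 luminescence gave viability, which was converted to inhibition. Vehicle wells were set to 0 and blank wells to 1. Combination Emax is the second-highest inhibition in the matrix, and Bliss excess is the observed combination effect minus the expected EA + EB − EA·EB, where EA and EB are the single-agent effects.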

[2] = tested on: BICR22 (Oral Cavity Carcinoma)
Procedure, shortened: as §1

[3] = tested on: SISO (Cervical Carcinoma)
Procedure, shortened: as §1

[4] = tested on: NCI-H2066 (Squamous Cell Lung Carcinoma)
Procedure, shortened: as §1

[5] = tested on: NCI-H1693 (Lung Adenocarcinoma)
Procedure, shortened: as §1

LN-405 (Glioblastoma) = tested on: LN-405 (Glioblastoma)
Procedure, shortened: as §1

U-2-OS (Osteosarcoma) = tested on: U-2-OS (Osteosarcoma)
Procedure, shortened: as §1

[6] = tested on: A549 (Lung Adenocarcinoma)
Procedure, shortened: as §1

[7] = tested on: SK-MES-1 (Squamous Cell Lung Carcinoma)
Procedure, shortened: as §1

[8] = tested on: CAPAN-2 (Pancreatic Carcinoma)
Procedure, shortened: as §1

[9] = tested on: COLO-824 (Breast Carcinoma)
Procedure, shortened: as §1

[10] = tested on: KARPAS-422 (B-Cell Non-Hodgkin's Lymphoma)
Procedure, shortened: as §1

[11] = tested on: A3-KAW (B-Cell Non-Hodgkin's Lymphoma)
Procedure, shortened: as §1

[12] = tested on: SK-MG-1 (Low Grade Glioma)
Procedure, shortened: as §1

[13] = tested on: NCI-H1650 (Lung Adenocarcinoma)
Procedure, shortened: as §1

[14] = tested on: ECC10 (Gastric Carcinoma)
Procedure, shortened: as §1

[15] = tested on: NCI-H1666 (Lung Adenocarcinoma)
Procedure, shortened: as §1

Hs-445 (Non-Cancerous) = tested on: Hs-445 (Non-Cancerous)
Procedure, shortened: as §1

[16] = tested on: CCK-81 (Colorectal Carcinoma)
Procedure, shortened: as §1

[17] = tested on: NCI-H2141 (Small Cell Lung Carcinoma)
Procedure, shortened: as §1

Structure (SMILES)	Bliss excess [1]	Bliss excess [2]	Bliss excess [3]	Bliss excess [4]	Bliss excess [5]	Bliss excess (LN-405 (Glioblastoma))	Bliss excess (U-2-OS (Osteosarcoma))	Bliss excess [6]	Bliss excess [7]	Bliss excess [8]	Bliss excess [9]	Bliss excess [10]	Bliss excess [11]	Bliss excess [12]	Bliss excess [13]	Bliss excess [14]	Bliss excess [15]	Bliss excess (Hs-445 (Non-Cancerous))	Bliss excess [16]	Bliss excess [17]
CN(C)CCCOc1ccc(-c2ccc3ncc4c(c3c2)n(C2CCOCC2)c(=O)n4C)cn1 [AZD0156] + C=CCn1c(=O)c2cnc(Nc3ccc(N4CCN(C)CC4)cc3)nc2n1-c1cccc(C(C)(C)O)n1 [AZD1775] (first compound max 1 µM, partner max 1 µM)	-0.0102	-0.0146	-0.0513	-0.07	-0.0242	-0.0478	0.0036	-0.0807	-0.0176	-0.0709	-0.0024	-0.0476	0.0707	0.0174	-0.0451	-0.0379	-0.0371	0.0015	-0.0039	-0.0944
CN(C)CCCOc1ccc(-c2ccc3ncc4c(c3c2)n(C2CCOCC2)c(=O)n4C)cn1 [AZD0156] + CCN(CCO)CCCOc1ccc2c(Nc3cc(CC(=O)Nc4cccc(F)c4)[nH]n3)ncnc2c1 [AZD2811] (first compound max 1 µM, 7x7, partner max 1 µM)	0.0161	0.0091	0.0081	-0.0649	-0.0274	-0.0356	-0.0148	-0.0431	-0.0458	-0.0637	-0.0565	0.0004	0.121	0.0212	-0.0571	-0.0028	-0.0661	0.045	-0.0302	-0.0327
CN(C)CCCOc1ccc(-c2ccc3ncc4c(c3c2)n(C2CCOCC2)c(=O)n4C)cn1 [AZD0156] + C[C@@H]1COCCN1C2=NC(=NC(=C2)C3(CC3)[S@](=N)(=O)C)C4=C5C=CNC5=NC=C4 [AZD6738] (first compound max 1 µM, 7x7, partner max 10 µM)	0.0233	-0.0626	0.0119	-0.0404	-0.0424	-0.0236	0.0445	-0.0652	-0.0406	-0.0591	0.0425	-0.0444	0.0876	0.0249	-0.0294	-0.0104	-0.0274	-0.0409	-0.0161	-0.0766
CN(C)CCCOc1ccc(-c2ccc3ncc4c(c3c2)n(C2CCOCC2)c(=O)n4C)cn1 [AZD0156] + O=C(c1cc(Cc2n[nH]c(=O)c3ccccc23)ccc1F)N1CCN(C(=O)C2CC2)CC1 [Olaparib] (first compound max 3 µM, partner max 3 µM)	0.171	-0.0003	0.0631	0.0139	-0.0439	-0.0375	0.0203	0.0069	-0.0199	-0.0535	0.0729	0.0171	0.276	0.0333	-0.0462	0.0522	0.0049	-0.0211	-0.0131	0.0117
C=CCn1c(=O)c2cnc(Nc3ccc(N4CCN(C)CC4)cc3)nc2n1-c1cccc(C(C)(C)O)n1 [AZD1775] + C1CN(CCC1(C(=O)N[C@@H](CCO)C2=CC=C(C=C2)Cl)N)C3=NC=NC4=C3C=CN4 [Capivasertib] (first compound max 3 µM, partner max 3 µM)	-0.0146	0.0369	-0.102	-0.0567	-0.0389	-0.0436	-0.0453	0.015	0.04	-0.0949	-0.0289	-0.0691	0.0032	-0.0212	-0.0473	-0.0156	-0.0773	-0.1	-0.0214	-0.0268
C=CCn1c(=O)c2cnc(Nc3ccc(N4CCN(C)CC4)cc3)nc2n1-c1cccc(C(C)(C)O)n1 [AZD1775] + C[C@@H]1COCCN1C2=NC(=NC(=C2)C3(CC3)[S@](=N)(=O)C)C4=C5C=CNC5=NC=C4 [AZD6738] (first compound max 1 µM, partner max 10 µM)	0.0409	0.0233	0.0461	0.0216	-0.0084	-0.0025	0.0364	-0.0313	-0.0223	-0.0608	0.0691	-0.0445	0.0285	-0.0173	-0.0054	0.0364	0.0189	-0.0017	-0.0359	0.0248
C=CCn1c(=O)c2cnc(Nc3ccc(N4CCN(C)CC4)cc3)nc2n1-c1cccc(C(C)(C)O)n1 [AZD1775] + O=C(c1cc(Cc2n[nH]c(=O)c3ccccc23)ccc1F)N1CCN(C(=O)C2CC2)CC1 [Olaparib] (first compound max 1 µM, partner max 10 µM)	-0.0434	-0.106	0.0151	-0.0407	-0.0137	-0.0583	-0.0258	-0.0667	-0.0915	-0.0576	-0.0423	-0.0648	0.0183	0.0058	-0.0643	-0.019	0.0278	0.0156	0.042	-0.0638
